Measured values from US20120258938A1, “Enzymatic Production or Chemical Synthesis and Uses for 5,7-Dienes and UVB Conversion Products Thereof” (priority 2008, published 2012).

Assays:
[1] = tested on: collagen-induced arthritis (CIA) in DBA/1 Lac J mice; test: Type II collagen-induced arthritis (CIA) model; type: in vivo, mouse; details: i.p. every day at 2.5 μg/kg from day 14 post CII immunization
Source text: The CIA model in DBA/1 Lac J mice has been widely studied as a model with some features of human RA, and has served as a reliable model to study various mediators and therapies of autoimmune arthritis. The immunization of DBA/1 Lac J mice with native bovine CII in complete Freund's adjuvant (CFA) is followed 10-14 days later by the onset of arthritis in the distal extremities. […] The arthritis is characterized by acute, subacute and chronic inflammation that correlates with histologic changes in distal extremity joints that progressively worsens during the subsequent 10 to 40 day period. The arthritis is dependent on the generation of inflammatory mediators from activation of the complement cascade by anti-CII antibodies, the infiltration of neutrophils, monocytes and T cells into the joint resulting in liberation of inflammatory cytokines and various proteases (42).
Twenty-four DBA/1 Lac J female mice 6 wks old were immunized with bovine CII in CFA. […] Arthritis severity was assessed every 3-4 days by two observers and each paw was given a score of 0=no swelling; 1=slight swelling and redness; 2=moderate swelling and redness; 3=marked swelling and redness; and 4=marked swelling and redness with deformity. […]

Col1A1 mRNA = test: Real time RT PCR Col1A1 mRNA, TGF-b1 stimulated skin fibroblasts; type: cell-based; details: human skin fibroblasts
Experimental: Additional studies using human skin fibroblasts were performed employing a type I collagen specific ELISA Chondrex, and real time RT PCR to quantitate type I collagen protein and Col1A1 mRNA expression in culture of human fibroblast stimulated by TGF-b1 in the presence and absence of 17,20S(OH)2pD3 and/or 20(OH)D3. These studies confirmed that Type I collagen protein production that was induced by TGF-b1 and that Col1A1 mRNA that was induced by TGF-b1 were suppressed by these analogues (FIGS. 44A-44B).

NFκB = test: Electrophoretic mobility shift assay for NF-κB activation; type: cell-based, human; details: HaCaT nuclear extracts, 10^−7 M
Source text: Electrophoretic mobility shift assay (EMSA) was done using the Odyssey Infrared Imaging System (LI-COR, Inc., Lincoln, Nebr.). The synthetic IRDye-labeled oligonucleotide (LI-COR) used for the DNA mobility shift assay contained the wild-type VDRE sequence sp1 promoter and part of INVOLUCRIN sequence contained the sequence: 5′-GCGGGAGGCAGATCTGGCAGATACTGA-3′ (SEQ ID NO: 3). Oligo was end labeled with infrared dye 700. Unlabeled oligo contained the same sequence. The DNA binding reaction was set up using 2.5 μg of the nuclear extract mixed with oligonucleotide and gel shift binding buffer consisting of: 2.5 mmol/L DTT, 0.25% Tween-20 and 0.25 mg/ml poly(dl):poly(dC) according to the LI-COR protocol. The reaction was incubated at room temperature in the dark for 30 minutes. For NF-κB activation p65 antibody was added to the 1 sample and incubated for the 30 min. Orange loading dye (2 μl of 10×) was added to each sample and loaded on the prerun 5% polyacrylamide gel and ran at 80V for 1 hour. The gel was scanned using Odyssey Infrared Imaging System.
HaCaT keratinocytes were treated with 20,23-dihydroxycholecalciferol for indicated time: 0 h, 30 min, 1 h, 4 h, 16 h and 24 h, at the concentration of 10^−7 [M]. […]

[2] = tested on: AbC1 hamster melanoma cells; test: Soft agar colony formation, AbC1 melanoma; type: cell-based
Experimental: Growth and survival of prostate cancer cells (PC3) and melanoma cells SKMEL 188 and AbC1 was determined by following their ability to form colonies in soft agar. Cells growing in monolayer culture were trypsinized and resuspended (1,000 cells/well) in 0.25 ml medium containing 0.4% agarose and 5% charcoal stripped serum (HyClone).
Cell suspensions were added to 0.8% agar layer in 24 well plates. Compounds were added from ethanol stocks (100 μM) to final concentrations of 0.1 nM or 10 nM, in 100 μL media. Each condition was tested in quadruplicate. An ethanol solvent control (amount of ethanol equivalent to test) as well as a media-only control was included in the assay. […] […] Colonies were then counted under the microscope and number of units was calculated as number of colonies formed divided by the number of cells seeded×100.

NFκB DNA-binding activity (EMSA) (NFκB) | SMILES | arthritis severity (CIA) [1] | TGF-b1 induced Col1A1 mRNA (Col1A1 mRNA) | decrease of colony formation in soft agar ([2]; AbC1, 0.1 nM) [%] | decrease of colony formation in soft agar ([2]; AbC1, 10 nM)
 | C=C1CC[C@H](O)C/C1=C/C=C1\CCC[C@@]2(C)[C@H]1CC[C@@H]2[C@@](C)(O)CCCC(C)C [20(OH)D3, (5Z,7E)-9,10-secocholesta-5,7,10(19)-triene-3β,20-diol] | suppresses CIA | suppressed |  | 
inhibited the NFκB binding activity | C=C1CC[C@H](O)C/C1=C/C=C1\CCC[C@]2(C)[C@@H](C(C)(O)CC(O)CC(C)C)CC[C@@H]12 (stereo partly drawn) [20,23-dihydroxycholecalciferol, (5Z,7E)-9,10-secocholesta-5,7,10(19)-triene-3β,20,23-triol] |  |  | 30 | approximately 50%
